According to article PMC9181926, “Synthesis and Antiproliferative Activity of Novel Dehydroabietic Acid-Chalcone Hybrids” (Molecules, 2022):

How the values were obtained:
[1] = test system: MDA-MB-231, MCF-7 and Hs578T breast cancer cell lines
Description: (§3) The antiproliferative activity of the synthesized DHA-chalcone hybrids 31–53 was evaluated using three characteristic breast carcinoma cell lines, MDA-MB-231, MCF-7, and Hs578T. For the sake of comparison, 5-FU, a widely used drug in clinical practice, was selected as positive control.
(§4) MCF-7 (ER-positive breast cancer cells, epithelial, low metastatic), MDA-MB-231, and Hs578T (triple negative breast cancer cells, mesenchymal, high metastatic) were obtained from American Type Culture Collection (ATCC) and cultured with DMEM high glucose/10% Fetal Bovine Serum (FBS) (supplied by Biosera). […] Cancer cells were seeded in 24 well plates (30,000 MCF-7 cells/well, 30.000 MDA-MB-231 cells/well, 25,000 Hs578T cells/well) and fibroblasts in 12 well plates (40,000 cells/well) and incubated in proper medium completed with 10% FBS for 48 h. Compounds were diluted in DMSO and working dilutions were prepared ranging from 5 to 200 μΜ for cancer cells and 1 to 100 μM for fibroblasts. All cells were incubated with working dilutions for 48 h. Afterwards, cells were detached by trypsinization, centrifuged at 3000 rpm for 3 min, and counted using a hemocytometer. Antiproliferation values were then calculated relatively to cancer or normal cells treated only with DMSO. […] IC50 values were calculated using GraphPad Prism 5 (Graph Pad Software).

Hs578T cells = assay: Antiproliferation assay (cell counting, 48 h) in Hs578T breast cancer cells; assay type: cell-based, human
Description: (§1) Regarding the different characteristics of the used breast cancer cell lines, we can notice that MDA-MB-231 and Hs578T are triple negative.
(§2) Primary skin normal fibroblasts were kindly provided by Prof. Emer.

MDA-MB-231 cells = assay: Antiproliferation assay (cell counting, 48 h) in MDA-MB-231 breast cancer cells; assay type: cell-based, human
Description: as §1, §2

MCF-7 cells = assay: Antiproliferation assay (cell counting, 48 h) in MCF-7 breast cancer cells; assay type: cell-based, human
Description: as §1, §2

[2] = test system: MDA-MB-231, MCF-7 and Hs578T breast cancer cell lines; assay: cells; details: Homo sapiens, read-out: IC50 against all the cancer cell lines
Description: as §3, §4

[3] = test system: normal primary fibroblasts (FB); assay: cells; assay type: cell-based, human; details: Fibroblast; normal primary human fibroblasts, 48 h incubation, cell counting
Description: as §2

COC(=O)[C@]1(C)CCC[C@]2(C)c3cc(O)c(C(=O)/C=C/c4cccnc4)cc3CCC12 (stereo partly drawn) [Compound 33, (1R,4aS)-methyl 6-hydroxy-1,4a-dimethyl-7-((E)-3-(pyridin-3-yl)acryloyl)-1,2,3,4,4a, 9,10,10a-octahydrophenanthrene-1-carboxylate]
times less toxic than 5-FU (selectivity indices) [1]: 2.2-3 times
times more active than 5-FU [1]: 2.4-3.3 times
Selectivity Index for Hs578T (Hs578T cells; FB IC50 relative to Hs578T IC50): 3.50
IC50 (Hs578T cells; Homo sapiens, Hs-578T, Hs578T cells, 48 h incubation, cell counting): 2.48 ± 0.13 µM
Selectivity Index for MDA-MB-231 (MDA-MB-231 cells; FB IC50 relative to MDA-MB-231 IC50): 1.47
IC50 (MDA-MB-231 cells; Homo sapiens, MDA-MB-231 cells, 48 h incubation, cell counting): 5.89 ± 0.77 µM
Selectivity Index for MCF-7 (MCF-7 cells; FB IC50 relative to MCF-7 IC50): 3.93
IC50 (MCF-7 cells; Homo sapiens, MCF7, MCF-7 cells, 48 h incubation, cell counting): 2.21 ± 0.4 µM
IC50 [2]: 2.21 to 5.89 µM
IC50 [3]: 8.68 ± 0.88 µM
